We go through one compound from paper PMC6178282, “Comparative cell biological study of in vitro antitumor and antimetastatic activity on melanoma cells of GnRH-III-containing conjugates modified with short-chain fatty acids” (Beilstein Journal of Organic Chemistry, 2018).

One data set has as its system A2058 melanoma cells. Description: Cell cycle analysis, propidium iodide flow cytometry. It is filed as cell-based, human. Conditions: 10^−5 M, 24 h. As to the method: Since the conjugates had no or minor apoptotic effect, the cell cycle kinetics of the cells treated with GnRH-III-based conjugates was also investigated to reveal the mechanism of growth inhibition of these conjugates. The distribution of the control and treated cells in the different cell cycle phases was analyzed by measurements of relative DNA contents of individual cells by flow cytometry after propidium iodide (Sigma-Aldrich, St. Louis, MO, USA) staining. […] In parallel, a decrease in the proportions of cells in G1/G0 and G2/M phase and an increase in the percentage of S phase cells were also observed.
Figure 4 Effects of conjugates and daunorubicin (Dau) on cell cycle progression of A2058 melanoma cells. The model cell was incubated with the compounds at 10^−5 M concentration for 24 h. Results are expressed as a percentage of cells in the sub-G1 area and the major phases (G1/G0, S and G2/M) of the cell cycle. Data shown in the figure represent mathematical averages of two parallel measurements. […]
Jose, CA, USA) was used to measure the DNA content of cells with propidium iodide (Sigma-Aldrich, St. Louis, MO, USA) intercalated stoichiometrically to the double-stranded […]
A2058 cells were seeded, treated and harvested in the same way described in section ‘Apoptosis assay’; then, the cells were fixed in ice-cold 70% ethanol and kept at −20 °C for 24 h. The samples were centrifuged and resuspended in RNase (100 μg/ml, Sigma-Aldrich, St. Louis, MO, USA) containing citric acid/sodium phosphate buffer (pH = 7.8). Propidium iodide was added to the sample in 10 μg/ml concentration right before the flow cytometric measurements collecting at 25000 cells/sample.
Data were analyzed by CellQuest Pro and Flowing 2.5.1 (Turku Centre of Biotechnology, Turku, Finland) software. For aggregate/debris discrimination, FL2-Width vs FL2-Area plot […]
values to each population of cell cycle stages.
Measurement of cell adhesion […]
xCELLigence SP System ( ACEA Biosciences, San Diego, CA, USA).
The adhesion assay, analogous to the description in [5], was started with a background measurement as mentioned above in the section “Cell proliferation and cytotoxicity measurement”. In the next steps, the compounds were added in the concentration range of 10−8–10−5 M and the cells were loaded into the wells at a concentration of 10^4 cells/well. […]
NeuroProbe® MBB 96 chamber (NeuroProbe, Gaithersburg, MD, USA) by using polycarbonate filters with pore size 8 μm. To quantify the number of the chemotactically active cells, the alamarBlue-assay was applied as explained above. The ‘Chemotaxis index (Chtx. ind.) plotted in Figure 6 was calculated from the average of 8 parallel measurements and expressed as a percentage of control.
In general terms: A flow cytometer gives signals particle by particle.

The subject of a further data set is A2058 cells. Description: Cellular uptake by flow cytometry (Dau fluorescence). It is filed as cell-based, human. Conditions: 10^−5 M, 1, 4 and 6 h, FACSCalibur flow cytometry, mean of 2 parallels. The protocol:
For investigation and comparison of the cellular uptake of the conjugates, A2058 cells were treated with the conjugates at 10^−5 M concentration for 1, 4 and 6 h. The fluorescence intensity of intracellular Dau built in the conjugates and as the free drug was determined by flow cytometry (FACSCalibur; Becton Dickinson, San Jose, CA, USA).
Figure 2 Cellular uptake of Dau–GnRH-III conjugates and free daunorubicin (Dau) by A2058 cells. Cellular uptake of the compounds was studied in 10^−5 M concentration. GeoMean (geometric mean channel) value is a dimensionless value and refers to the relative fluorescence intensity. Data shown are mean of 2 parallels ± SD. […]
To study the cellular uptake of conjugates and Dau as the reference drug, A2058 cells (2 × 10^5 cells/well) were seeded on 12-well plates and cultured for 24 h. […] The measurements of internalized conjugates are based on the fluorescence activity of Dau. For detecting the intracellular fluorescence intensity of the cells, which is proportional with the cellular uptake, FACSCalibur flow cytometer (Becton Dickinson, San Jose, CA, USA) was used by collecting 10000 cells for each measurement. […] CellQuest Pro program (Becton-Dickinson, San Jose, CA, USA) was used for the measurement and the evaluation of relative fluorescence intensity (geometric mean channel – GeoMean values). […]

Take `COc1cccc2c1C(=O)c1c(O)c3c(c(O)c1C2=O)C[C@@](O)(C(C)=O)C[C@@H]3O[C@H]1C[C@H](N)[C@H](O)[C@H](C)O1` [daunorubicin]: the “percentage of S phase cells” value in the data set with A2058 melanoma cells (compared with control) is on record as “increase”. Further, the “percentage of cells in sub-G1 phase” value with A2058 melanoma cells (control 3.4%, average of two parallels) is given as 14.1%. In the data set with A2058 melanoma cells (control 34.3%, average of two parallels), the “percentage of cells in G2/M phase” value is “decrease”. In addition, the “percentage of cells in G1/G0 phase” value with A2058 melanoma cells (control 47.6%, average of two parallels) is “decrease”. In the data set on A2058 cells, the “Cellular uptake (GeoMean, relative intracellular fluorescence intensity normalized to control)” value is listed as “high level of intracellular fluorescence”.
